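48-hour exposure; five concentrations; linearly interpolated endpoints. GI50 = concentration required for 50% inhibition of growth.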 Calls of active or inactive are those of the source. Rule as the data show it: active = GI50 up to about 1.1 µM and inactive = higher.
Assays:
Assay in all cases: growth of human tumour cells (NCI), 48 h
CAKI-1 = tested on: CAKI-1
CCRF-CEM = tested on: CCRF-CEM
HT-29 = tested on: HT-29
OVCAR-8 = tested on: OVCAR-8
IGROV-1 = tested on: IGROV-1
NCI-H522 = tested on: NCI-H522
MOLT-4 = tested on: MOLT-4
OVCAR-5 = tested on: OVCAR-5
NCI-H226 = tested on: NCI-H226
SF-268 = tested on: SF-268
T47D = tested on: T47D
MDA-N = tested on: MDA-N
A549 = tested on: A549
HOP-92 = tested on: HOP-92
Hs-578T = tested on: Hs-578T
SF-539 = tested on: SF-539
SN12C = tested on: SN12C
NCI-H460 = tested on: NCI-H460
SK-MEL-28 = tested on: SK-MEL-28
DU-145 = tested on: DU-145
HL-60 = tested on: HL-60
SK-MEL-5 = tested on: SK-MEL-5
COLO 205 = tested on: COLO 205
Malme-3M = tested on: Malme-3M
HOP-62 = tested on: HOP-62
NCI/ADR-RES = tested on: NCI/ADR-RES
UACC-257 = tested on: UACC-257
OVCAR-4 = tested on: OVCAR-4
K562 = tested on: K562
KM12 = tested on: KM12
HCT-116 = tested on: HCT-116
SK-MEL-2 = tested on: SK-MEL-2
MDA-MB-435 = tested on: MDA-MB-435
MDA-MB-231 = tested on: MDA-MB-231
LOX IMVI = tested on: LOX IMVI
NCI-H23 = tested on: NCI-H23
SNB-19 = tested on: SNB-19
BT-549 = tested on: BT-549
SW-620 = tested on: SW-620
OVCAR-3 = tested on: OVCAR-3
ACHN = tested on: ACHN
UACC-62 = tested on: UACC-62
U-251 = tested on: U-251
M14 = tested on: M14
RXF 393 = tested on: RXF 393
EKVX = tested on: EKVX
SNB-75 = tested on: SNB-75
SK-OV-3 = tested on: SK-OV-3
HCT-15 = tested on: HCT-15
SF-295 = tested on: SF-295
786-0 = tested on: 786-0
PC-3 = tested on: PC-3
TK-10 = tested on: TK-10

Q: Which results are given for `O=S(=O)(N/C(=N\O)Nc1ccc(Cl)cc1)c1cc(C(F)(F)F)cc(C(F)(F)F)c1`?
A: GI50 (CAKI-1): 16.9 µM (inactive); GI50 (CCRF-CEM): 40.7 µM (inactive); GI50 (HT-29): 19 µM (inactive); GI50 (OVCAR-8): 18.7 µM (inactive); GI50 (IGROV-1): 16.9 µM (inactive); GI50 (NCI-H522): 18.9 µM (inactive); GI50 (MOLT-4): 19 µM (inactive); GI50 (OVCAR-5): 16.3 µM (inactive); GI50 (NCI-H226): 19.1 µM (inactive); GI50 (SF-268): 21.6 µM (inactive); GI50 (T47D): 22.4 µM (inactive); GI50 (MDA-N): 21 µM (inactive); GI50 (A549): 18.1 µM (inactive); GI50 (HOP-92): 16.2 µM (inactive); GI50 (Hs-578T): 23 µM (inactive); GI50 (SF-539): 22.3 µM (inactive); GI50 (SN12C): 17.5 µM (inactive); GI50 (NCI-H460): 26.4 µM (inactive); GI50 (SK-MEL-28): 19.2 µM (inactive); GI50 (DU-145): 21.3 µM (inactive); GI50 (HL-60): 24.3 µM (inactive); GI50 (SK-MEL-5): 18 µM (inactive); GI50 (COLO 205): 18.6 µM (inactive); GI50 (Malme-3M): 18 µM (inactive); GI50 (HOP-62): 18.7 µM (inactive); GI50 (NCI/ADR-RES): 24.9 µM (inactive); GI50 (UACC-257): 20.9 µM (inactive); GI50 (OVCAR-4): 15 µM (inactive); GI50 (K562): 29.9 µM (inactive); GI50 (KM12): 19.7 µM (inactive); GI50 (HCT-116): 17.5 µM (inactive); GI50 (SK-MEL-2): 17.4 µM (inactive); GI50 (MDA-MB-435): 20.3 µM (inactive); GI50 (MDA-MB-231): 18.4 µM (inactive); GI50 (LOX IMVI): 18.5 µM (inactive); GI50 (NCI-H23): 19.9 µM (inactive); GI50 (SNB-19): 17.1 µM (inactive); GI50 (BT-549): 18.7 µM (inactive); GI50 (SW-620): 34.3 µM (inactive); GI50 (OVCAR-3): 16 µM (inactive); GI50 (ACHN): 17.3 µM (inactive); GI50 (UACC-62): 16.7 µM (inactive); GI50 (U-251): 16.6 µM (inactive); GI50 (M14): 17.4 µM (inactive); GI50 (RXF 393): 19 µM (inactive); GI50 (EKVX): 16.6 µM (inactive); GI50 (SNB-75): 16 µM (inactive); GI50 (SK-OV-3): 18.6 µM (inactive); GI50 (HCT-15): 19.9 µM; GI50 (SF-295): 18.3 µM (inactive); GI50 (786-0): 19.3 µM (inactive); GI50 (PC-3): 17.5 µM (inactive); GI50 (TK-10): 19.2 µM (inactive)

— ChEMBL document CHEMBL1201862, “PubChem BioAssay data set” (2004)
